The values that follow come from patent US4526891A, “Substituted alkyl amine derivatives of 6,11-dihydro-11-oxodibenz[b,e]oxepins” (Hoechst Roussel Pharmaceuticals Inc., priority 1983, dated 1985).

The ED50 is the dose that gives a 50% effect, or the effect in half of the subjects.

Each structure is given as a SMILES string. Read-outs that look alike come from different tables or passages of the source.

This experiment has as its system 2-phenyl-1,4-benzoquinone-induced writhing. Briefly: 2-phenyl-1,4-benzoquinone-induced writhing test in mice (analgesia). The format is in vivo. Conditions: for ED50: Mus musculus.
Where [1] appears, read: po, read-out: ED50 (dosage which exhibits 50% inhibition of writhing).

On to `O=C1c2ccccc2COc2ccc(CCN3CCN(c4ccccc4)CC3)cc21` [1-[2-(6,11-Dihydro-11-oxodibenz[b,e]oxepin-2-yl)ethyl]-4-phenylpiperazine], for which the ED50 (oral dose, ** ED50, 50% inhibition, read-out: ED50 (dosage which exhibits 50% inhibition of writhing)) came out at 25 mg/kg. Take `CN(C)CCc1ccc2c(c1)C(=O)c1ccccc1CO2.Cl` [2-(6,11-Dihydro-11-oxodibenz[b,e]oxepin-2-yl)-N,N-dimethylethylamine hydrochloride]: where the note is “25 mg/kg of body weight, subcutaneously (*)”, the “% Inhibition of writhing” value came to 66%. As for `CNCCc1ccc2c(c1)C(=O)c1ccccc1CO2.Cl` [2-(6,11-Dihydro-11-oxodibenz[b,e]oxepin-2-yl)-N-methylethylamine hydrochloride], the median effective dose (ED50) under setting [1] turned out to be 9.8 mg/kg. On the same count and under the same terms, the same measure for `Cl.NCCc1ccc2c(c1)C(=O)c1ccccc1CO2` [2-(6,11-Dihydro-11-oxodibenz[b,e]oxepin-2-yl)ethylamine hydrochloride]: 7.4 mg/kg. Take `CCC(=O)O[C@](Cc1ccccc1)(c1ccccc1)[C@H](C)CN(C)C` [propoxyphene, reference compound]: the ED50 (sc, read-out: dose giving 50% inhibition of writhing (ED50)) worked out at 3.9 mg/kg.
